Experimental data: patent publication US9783586B2, “Inhibitors of the linear ubiquitin chain assembly complex (LUBAC) and related methods” (The United States of America, as represented by the …, priority 2013, dated 2017)
Positions of bridges follow the written chain, without caps; N, C: chain ends. Non-standard residues stand in square brackets, D forms with d. Residues, ends and D or L forms follow the SMILES beside them. No end group written: not given here. S5 = C=CCCC[C@](C)(N)C(=O)O; βAla = NCCC(=O)O

Legend:
Assay type in all cases: cell-based
[1] = tested on: NF-κB; test: NF-κB luciferase reporter assay; settings: for NF-κB activity: ABC DLBCL cells, Example 10 (FIG. 8A); for Relative NF-κB-luciferase reporter activity: HBL1 ABC DLBCL cells, 5 μM or 20 μM, 2 days, relative to DMSO (FIG. 4)
Protocol: A third experiment was done using a different reporter system for NF-κB activity. HBL1 and TMD8 ABC DLBCL lines cell lines were created with an NF-κB transcriptional reporter by transduction with lentiviral particles containing an inducible NF-κB-responsive luciferase reporter construct (SA Biosciences, Valencia, Calif.) and selected with puromycin. Luciferase activity was measured using the DUAL-LUCIFERASE™ Reporter Assay System (Promega) on a Microtiter Plate Luminometer (Dyn-Ex Technologies, Chantilly, Va.). The transduced HBL and TMD8 cell lines were then transfected with constructs that inducibly express control (SC4) or RNF31 shRNAs described above. Expression of shRNAs was induced using doxycyline, and the luciferase reporter activity in shRNF31 expression cells was measured and normalized relative to control (SC4). Cells were also treated with the specific IKKβ inhibitor (MLN120B) as a positive control. Experiments were done in triplicate, and results are shown in FIG. 2C (error bars indicate SEM).
The ability of these peptides to inhibit NF-κB activity in ABC DLBCL was determined using the NF-κB luciferase reporter assay described above. Negative control cells were treated with dimethyl sulfoxide (DMSO), and positive control cells were treated with Bruton's tyrosine kinase (Btk) inhibitor ibrutinib. […] Cells were treated with peptides at concentrations of 5 μM or 20 μM for 2 days. Relative NF-κB-luciferase reporter activity was normalized and measured relative to control (DMSO-treated) cells. The results of triplicate experiments are shown in FIG. 4 (error bars indicate the SEM).

[2] = tested on: ABC DLBCL cell lines; test: MTS cell viability assay, ABC DLBCL; settings: ABC DLBCL cells, Example 10 (FIG. 8C)
Protocol: ABC and GCB DLBCL cell lines were treated with RNF31 stapled peptides of Table 2 at concentrations of 5 μM or 20 μM for four days. Cell viability was determined using the following MTS assay. Cells were plated in triplicate at a density of 15,000 cells per well in 96-well plates. Cell viability after indicated treatments was assayed by adding 3-(4,5-dimethylthiazol-2-yl)-5-(3-carboxymethoxyphenyl)-2-(4-sulphophenyl)-2H tetrazolium and an electron coupling reagent (phenazine methosulphate from Promega, Madison, Wis.), incubated for 3 hours and measured by the amount of 490 nm absorbance using a 96-well plate reader. The background was subtracted using a media only control. The results of these MTS assays done in triplicate are shown in FIGS. 7A-7D (error bars indicate the SEM), and cell viability is expressed as the fraction of cells remaining after four days treatment, relative to the initial number of cells at the start of treatment (time 0). The results of MTS cell viability assay indicate that amino-terminal cross-linked peptides RNF31-N (SEQ ID NO: 11) and RNF31-NC (SEQ ID NO: 12) were toxic to ABC DLBCL cell lines but had little effect on GCB DLBCL cell lines tested.

[3] = tested on: IκBα; test: IκBα-luciferase reporter assay; settings: ABC DLBCL cells, Example 10 (FIG. 8B)
Description: In a second experiment, HBL1 and TMD8 ABC DLBCL lines were engineered to contain an NF-κB-driven luciferase reporter. Vectors expressing an IκBα-luciferase fusion protein were constructed using Photinus luciferase from pGL3 vector (Promega, Madison, Wis.) as the reporter and Renilla luciferase construct from phRL-TK (Promega) was used for normalization. Stable clones were identified that were responsive to […] (see Lam et al, Clin Cancer Res, 11: 28-40 (2005)). After development with the DUAL-GLO luciferase assay system (Promega), the ratio of IκBα-Photinus to Renilla luminescence was normalized to that in untreated or uninduced cultures. The IκBα assay, which relies on the correlation between NF-κB activity and IKKβ kinase activity, was previously described in Lenz et al, Science, 319: 1676-1679 (2008). In brief, IKKβ kinase phosphorylates IκBα, which leads to degradation of IκBα (an inhibitor of NF-κB) and thereby activates NF-κB.
The engineered cells were transfected with control (SC4) or RNF31 shRNAs under the control of a doxycyline promoter as described in Example 2. Expression of shRNA was induced with doxycyline, and relative amounts of NF-κB Luciferase reporter activity was measured and normalized relative to control (SC4) shRNA. As additional controls, the expression of NF-κB Luciferase reporter activity was measured in cells that were not expressing shRNAs and which were either treated with the specific IKKβ inhibitor (“MLM-120B”) or untreated (“No Rx”). Experiments were done in triplicate and the results are shown in FIG. 2B (error bars indicate standard error of the mean (SEM)).

[4] = target: T1, RBCK1/RNF31 interaction (Homo sapiens, UniProt Q9BYM8); test: RBCK1/RNF31 co-immunoprecipitation (LUBAC complex formation) in co-transfected HEK-293 cells; settings: for Interference with LUBAC function: Example 9, tested as described in Example 7 (present tense); for RBCK1/RNF31 interaction (anti-HA immunoprecipitation, densitometry): HEK-293 cells, 5 μM or 20 μM, 24 hours, relative to DMSO (FIGS. 5, 6)
T1 construct: expressed in transfected cells; host or cells: HEK-293
T1 sequence (Q9BYM8 1-510): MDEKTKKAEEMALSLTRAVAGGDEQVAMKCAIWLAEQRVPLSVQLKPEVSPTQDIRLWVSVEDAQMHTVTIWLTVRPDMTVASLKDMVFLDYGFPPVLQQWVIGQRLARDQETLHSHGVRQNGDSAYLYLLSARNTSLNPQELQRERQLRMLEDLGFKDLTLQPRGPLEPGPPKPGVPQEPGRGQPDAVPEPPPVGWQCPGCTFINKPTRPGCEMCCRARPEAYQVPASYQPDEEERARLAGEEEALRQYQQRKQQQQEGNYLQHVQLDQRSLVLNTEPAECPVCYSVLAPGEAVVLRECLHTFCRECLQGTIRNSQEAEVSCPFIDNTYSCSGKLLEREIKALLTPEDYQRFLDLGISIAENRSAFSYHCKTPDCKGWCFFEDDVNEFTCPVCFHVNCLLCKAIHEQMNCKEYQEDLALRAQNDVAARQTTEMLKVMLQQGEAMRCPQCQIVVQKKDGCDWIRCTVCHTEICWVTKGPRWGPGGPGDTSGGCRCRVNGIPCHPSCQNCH

| Compound | NF-κB activity [1] | Cell viability (MTS) [2] | IκBα activity (IκBα-reporter) [3] | Interference with LUBAC function [4] | Relative NF-κB-luciferase reporter activity [1] | RBCK1/RNF31 interaction (anti-HA immunoprecipitation, densitometry) [4] |
| --- | --- | --- | --- | --- | --- | --- |
| SRALTELQRQRLEPFRQRLWDSG [SEQ ID NO:1] | little or no effect | little or no effect | little or no effect |  |  |  |
| CC(=O)NCCC(=O)N[C@@H](CO)C(=O)N[C@@H](CCCNC(=N)N)C(=O)N[C@@]1(C)CCCC=CCCC[C@@](C)(C(=O)N[C@@H](CCC(N)=O)C(=O)N[C@@H](CCCNC(=N)N)C(=O)N[C@@H](CCC(N)=O)C(=O)N[C@@H](CCCNC(=N)N)C(=O)N[C@@H](CC(C)C)C(=O)N[C@@H](CCC(=O)O)C(=O)N2CCC[C@H]2C(=O)N[C@@H](Cc2ccccc2)C(=O)N[C@@H](CS)C(=O)N[C@@H](CC(C)C)C(=O)N[C@@H](CCCNC(=N)N)C(=O)N[C@@]2(C)CCCC=CCCC[C@@](C)(C(N)=O)NC(=O)[C@H](CO)NC(=O)[C@H](CC(=O)O)NC(=O)[C@H](Cc3c[nH]c4ccccc34)NC2=O)NC(=O)[C@H](CCC(=O)O)NC(=O)[C@H]([C@@H](C)O)NC(=O)[C@H](CC(C)C)NC1=O [RNF31-NC R2CL, Ac-βAla Ser Arg Xaa Leu Thr Glu Xaa Gln Arg Gln Arg Leu Glu Pro Phe Cys Leu Arg Xaa Trp Asp Ser Xaa-NH2] (Ac-[βAla]SR[S5]LTE[S5]QRQRLEPFCLR[S5]WDS[S5]-NH2; staple 4-8, 20-24) |  |  |  | interfere with LUBAC function |  |  |
| CC(=O)NCCC(=O)N[C@@H](CO)C(=O)N[C@@H](CCCNC(=N)N)C(=O)N[C@@]1(C)CCCC=CCCC[C@@](C)(C(=O)N[C@@H](CCC(N)=O)C(=O)N[C@@H](CCCNC(=N)N)C(=O)N[C@@H](CCC(N)=O)C(=O)N[C@@H](CCCNC(=N)N)C(=O)N[C@@H](CC(C)C)C(=O)N[C@@H](CCC(=O)O)C(=O)N2CCC[C@H]2C(=O)N[C@@H](Cc2ccccc2)C(=O)N[C@@H](CS)C(=O)N[C@@H](CCC(N)=O)C(=O)N[C@@H](CCCNC(=N)N)C(=O)N[C@@]2(C)CCCC=CCCC[C@@](C)(C(N)=O)NC(=O)[C@H](CO)NC(=O)[C@H](CC(=O)O)NC(=O)[C@H](Cc3c[nH]c4ccccc34)NC2=O)NC(=O)[C@H](CCC(=O)O)NC(=O)[C@H]([C@@H](C)O)NC(=O)[C@H](CC(C)C)NC1=O [RNF31-NC R2C, Ac-βAla Ser Arg Xaa Leu Thr Glu Xaa Gln Arg Gln Arg Leu Glu Pro Phe Cys Gln Arg Xaa Trp Asp Ser Xaa-NH2] (Ac-[βAla]SR[S5]LTE[S5]QRQRLEPFCQR[S5]WDS[S5]-NH2; staple 4-8, 20-24) |  |  |  | interfere with LUBAC function |  |  |
| Ac-βAla Ser Arg Ala Leu Thr Glu Leu Gln Arg Gln Arg Leu Glu Pro Phe Arg Gln Arg Leu Trp Asp Ser-NH2 (Ac-[βAla]SRALTELQRQRLEPFRQRLWDS-NH2; SMILES CC(=O)NCCC(=O)N[C@@H](CO)C(=O)N[C@@H](CCCNC(=N)N)C(=O)N[C@@H](C)C(=O)N[C@@H](CC(C)C)C(=O)N[C@H](C(=O)N[C@@H](CCC(=O)O)C(=O)N[C@@H](CC(C)C)C(=O)N[C@@H](CCC(N)=O)C(=O)N[C@@H](CCCNC(=N)N)C(=O)N[C@@H](CCC(N)=O)C(=O)N[C@@H](CCCNC(=N)N)C(=O)N[C@@H](CC(C)C)C(=O)N[C@@H](CCC(=O)O)C(=O)N1CCC[C@H]1C(=O)N[C@@H](Cc1ccccc1)C(=O)N[C@@H](CCCNC(=N)N)C(=O)N[C@@H](CCC(N)=O)C(=O)N[C@@H](CCCNC(=N)N)C(=O)N[C@@H](CC(C)C)C(=O)N[C@@H](Cc1c[nH]c2ccccc12)C(=O)N[C@@H](CC(=O)O)C(=O)N[C@@H](CO)C(N)=O)[C@@H](C)O) [RNF31-wt] | inhibited NF-κB activity | decreased cell viability | decreased IκBα activity |  | less of an effect | little if any effect |
| Ac-βAla Ser Arg Ala Leu Thr Glu Leu Gln Arg Gln Arg Leu Glu Pro Phe Arg Gln Arg Xaa Trp Asp Ser Xaa-NH2 (Ac-[βAla]SRALTELQRQRLEPFRQR[S5]WDS[S5]-NH2; staple 20-24; SMILES CC(=O)NCCC(=O)N[C@@H](CO)C(=O)N[C@@H](CCCNC(=N)N)C(=O)N[C@@H](C)C(=O)N[C@@H](CC(C)C)C(=O)N[C@H](C(=O)N[C@@H](CCC(=O)O)C(=O)N[C@@H](CC(C)C)C(=O)N[C@@H](CCC(N)=O)C(=O)N[C@@H](CCCNC(=N)N)C(=O)N[C@@H](CCC(N)=O)C(=O)N[C@@H](CCCNC(=N)N)C(=O)N[C@@H](CC(C)C)C(=O)N[C@@H](CCC(=O)O)C(=O)N1CCC[C@H]1C(=O)N[C@@H](Cc1ccccc1)C(=O)N[C@@H](CCCNC(=N)N)C(=O)N[C@@H](CCC(N)=O)C(=O)N[C@@H](CCCNC(=N)N)C(=O)N[C@@]1(C)CCCC=CCCC[C@@](C)(C(N)=O)NC(=O)[C@H](CO)NC(=O)[C@H](CC(=O)O)NC(=O)[C@H](Cc2c[nH]c3ccccc23)NC1=O)[C@@H](C)O) [RNF31-C] |  |  |  |  | less of an effect | little if any effect |
| CC(=O)NCCC(=O)N[C@@H](CO)C(=O)N[C@@H](CCCNC(=N)N)C(=O)N[C@@]1(C)CCCC=CCCC[C@@](C)(C(=O)N[C@@H](CCC(N)=O)C(=O)N[C@@H](CCCNC(=N)N)C(=O)N[C@@H](CCC(N)=O)C(=O)N[C@@H](CCCNC(=N)N)C(=O)N[C@@H](CC(C)C)C(=O)N[C@@H](CCC(=O)O)C(=O)NCC(=O)N[C@@H](Cc2ccccc2)C(=O)N[C@@H](CCCNC(=N)N)C(=O)N[C@@H](CCC(N)=O)C(=O)N[C@@H](CCCNC(=N)N)C(=O)N[C@@]2(C)CCCC=CCCC[C@@](C)(C(N)=O)NC(=O)[C@H](CO)NC(=O)[C@H](CC(=O)O)NC(=O)[C@H](Cc3c[nH]c4ccccc34)NC2=O)NC(=O)[C@H](CCC(=O)O)NC(=O)[C@H]([C@@H](C)O)NC(=O)[C@H](CC(C)C)NC1=O [RNF31-NC P2G, Ac-βAla Ser Arg Xaa Leu Thr Glu Xaa Gln Arg Gln Arg Leu Glu Gly Phe Arg Gln Arg Xaa Trp Asp Ser Xaa-NH2] (Ac-[βAla]SR[S5]LTE[S5]QRQRLEGFRQR[S5]WDS[S5]-NH2; staple 4-8, 20-24) |  |  |  | interfere with LUBAC function |  |  |
